Reference: ChEMBL document CHEMBL2311273, “Discovery of potent, selective multidrug and toxin extrusion transporter 1 (MATE1, SLC47A1) inhibitors through prescription drug profiling and computational modeling” (J Med Chem, 2013)

Assays:
[1] = target: T1, MATE1 (multidrug and toxin extrusion protein 1) (Homo sapiens, UniProt Q96FL8); assay: (§1) Inhibition of human MATE1-mediated ASP+ uptake expressed in HEK293 cells at 20 uM after 1.5 mins by fluorescence assay; type: cell-based; settings: HEK293 cells expressing human MATE1, probe ASP+
T1 sequence (Q96FL8 whole entry): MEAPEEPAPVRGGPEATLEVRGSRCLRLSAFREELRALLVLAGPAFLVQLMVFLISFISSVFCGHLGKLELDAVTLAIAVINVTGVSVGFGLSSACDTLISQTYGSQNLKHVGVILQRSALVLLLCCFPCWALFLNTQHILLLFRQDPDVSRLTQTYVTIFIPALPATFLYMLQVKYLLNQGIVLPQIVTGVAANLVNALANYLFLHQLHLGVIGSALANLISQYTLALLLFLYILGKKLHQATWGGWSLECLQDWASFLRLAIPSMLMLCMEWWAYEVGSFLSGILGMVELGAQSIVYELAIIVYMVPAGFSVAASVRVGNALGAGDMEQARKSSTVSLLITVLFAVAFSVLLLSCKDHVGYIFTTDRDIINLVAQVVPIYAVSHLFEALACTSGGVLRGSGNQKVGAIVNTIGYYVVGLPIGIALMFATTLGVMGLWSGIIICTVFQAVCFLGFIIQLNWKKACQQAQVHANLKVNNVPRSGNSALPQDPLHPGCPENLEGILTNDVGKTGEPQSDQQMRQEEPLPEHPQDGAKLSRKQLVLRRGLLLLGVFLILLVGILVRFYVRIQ

[2] = target: T2, Solute carrier family 22 member 3 (Homo sapiens, UniProt O75751); assay: Inhibition of human OCT3-mediated ASP+ uptake expressed in HEK293 cells after 3 mins by fluorescence assay; type: cell-based
T2 sequence (O75751 whole entry): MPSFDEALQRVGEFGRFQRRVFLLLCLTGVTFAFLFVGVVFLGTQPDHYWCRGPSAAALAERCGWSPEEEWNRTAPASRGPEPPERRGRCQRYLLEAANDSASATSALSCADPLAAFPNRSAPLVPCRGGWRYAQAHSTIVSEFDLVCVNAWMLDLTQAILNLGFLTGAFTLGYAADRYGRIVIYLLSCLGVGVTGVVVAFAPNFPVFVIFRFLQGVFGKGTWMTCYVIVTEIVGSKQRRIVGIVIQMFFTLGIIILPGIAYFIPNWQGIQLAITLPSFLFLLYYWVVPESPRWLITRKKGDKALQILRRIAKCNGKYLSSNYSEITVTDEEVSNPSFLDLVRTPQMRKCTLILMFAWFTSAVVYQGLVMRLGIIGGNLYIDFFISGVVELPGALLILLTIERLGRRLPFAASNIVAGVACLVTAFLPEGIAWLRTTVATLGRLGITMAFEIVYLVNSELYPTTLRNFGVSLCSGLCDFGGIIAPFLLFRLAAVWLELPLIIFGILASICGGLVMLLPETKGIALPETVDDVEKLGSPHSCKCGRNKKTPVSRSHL

[3] = target: T3, Solute carrier family 22 member 1 (Homo sapiens, UniProt O15245); assay: Inhibition of human OCT1-mediated ASP+ uptake expressed in HEK293 cells after 3 mins by fluorescence assay; type: cell-based
T3 sequence (O15245 whole entry): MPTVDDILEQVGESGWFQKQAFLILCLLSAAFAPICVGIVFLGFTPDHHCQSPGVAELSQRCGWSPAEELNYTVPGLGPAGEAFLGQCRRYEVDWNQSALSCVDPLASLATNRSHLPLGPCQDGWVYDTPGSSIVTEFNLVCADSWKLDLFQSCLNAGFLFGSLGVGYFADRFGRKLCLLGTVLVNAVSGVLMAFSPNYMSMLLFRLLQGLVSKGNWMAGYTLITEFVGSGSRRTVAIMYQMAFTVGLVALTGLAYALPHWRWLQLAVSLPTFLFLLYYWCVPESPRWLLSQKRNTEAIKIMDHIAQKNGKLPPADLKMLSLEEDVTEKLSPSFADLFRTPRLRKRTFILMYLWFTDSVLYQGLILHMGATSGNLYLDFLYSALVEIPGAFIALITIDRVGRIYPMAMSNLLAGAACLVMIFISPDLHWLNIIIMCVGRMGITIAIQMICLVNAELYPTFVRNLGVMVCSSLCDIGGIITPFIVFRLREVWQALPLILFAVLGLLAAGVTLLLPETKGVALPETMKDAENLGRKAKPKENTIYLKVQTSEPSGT

[4] = target: T4, Solute carrier family 22 member 2 (Homo sapiens, UniProt O15244); assay: Inhibition of human OCT2-mediated ASP+ uptake expressed in HEK293 cells after 3 mins by fluorescence assay; type: cell-based
T4 sequence (O15244 whole entry): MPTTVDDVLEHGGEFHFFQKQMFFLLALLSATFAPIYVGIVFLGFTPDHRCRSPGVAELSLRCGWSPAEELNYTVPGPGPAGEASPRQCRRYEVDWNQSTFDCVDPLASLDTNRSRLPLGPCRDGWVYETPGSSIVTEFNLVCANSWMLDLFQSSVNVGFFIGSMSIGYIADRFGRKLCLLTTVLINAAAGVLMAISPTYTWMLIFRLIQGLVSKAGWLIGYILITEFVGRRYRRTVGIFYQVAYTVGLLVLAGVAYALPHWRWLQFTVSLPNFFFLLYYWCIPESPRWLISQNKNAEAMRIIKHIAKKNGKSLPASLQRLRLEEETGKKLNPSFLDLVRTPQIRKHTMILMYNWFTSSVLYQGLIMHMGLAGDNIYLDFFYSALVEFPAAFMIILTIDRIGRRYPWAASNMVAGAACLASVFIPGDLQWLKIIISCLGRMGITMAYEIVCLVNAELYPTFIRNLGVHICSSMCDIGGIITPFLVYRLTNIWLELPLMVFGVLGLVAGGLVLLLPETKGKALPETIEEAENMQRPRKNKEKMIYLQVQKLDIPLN

[5] = target: T5, Multidrug and toxin extrusion protein 1 (Homo sapiens, UniProt Q96FL8); assay: as §1; type: cell-based; settings: hek293, […], 20 µM
T5 sequence (Q96FL8 whole entry): T1 sequence (Q96FL8 whole entry)

[6] = target: T6, Multidrug and toxin extrusion protein 2 (Homo sapiens, UniProt Q86VL8); assay: Inhibition of human MATE2K-mediated ASP+ uptake expressed in HEK293 cells after 1.5 mins by fluorescence assay; type: cell-based
T6 sequence (Q86VL8 whole entry): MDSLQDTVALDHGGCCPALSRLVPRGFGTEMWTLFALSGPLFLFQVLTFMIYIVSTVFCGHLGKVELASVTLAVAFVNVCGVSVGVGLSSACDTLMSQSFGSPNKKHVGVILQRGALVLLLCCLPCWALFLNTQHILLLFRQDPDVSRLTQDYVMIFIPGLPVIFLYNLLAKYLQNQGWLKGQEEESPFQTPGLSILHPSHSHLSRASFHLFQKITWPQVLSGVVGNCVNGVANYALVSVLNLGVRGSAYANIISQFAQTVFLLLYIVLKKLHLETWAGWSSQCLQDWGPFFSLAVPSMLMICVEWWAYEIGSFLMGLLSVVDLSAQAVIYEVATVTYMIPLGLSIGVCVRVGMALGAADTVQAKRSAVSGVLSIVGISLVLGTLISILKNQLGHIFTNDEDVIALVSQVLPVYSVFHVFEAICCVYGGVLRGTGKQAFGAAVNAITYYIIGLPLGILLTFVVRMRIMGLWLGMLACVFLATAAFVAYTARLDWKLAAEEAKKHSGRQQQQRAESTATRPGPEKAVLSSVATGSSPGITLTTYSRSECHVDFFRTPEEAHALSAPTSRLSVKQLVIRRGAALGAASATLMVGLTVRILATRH

[7] = target: T5, Multidrug and toxin extrusion protein 1; assay: Inhibition of human MATE1-mediated ASP+ uptake expressed in HEK293 cells after 1.5 mins by fluorescence assay; type: cell-based
[8] = Cmax in human at 40 mg, po after 7 days; type: ADME, organism-based; set-up: dose 40 mg, route oral; settings: in vivo
[9] = target: T5, Multidrug and toxin extrusion protein 1; assay: Inhibition of human MATE1-mediated [14]-metformin uptake expressed in HEK293 cells after 1.5 mins by scintillation counting analysis; type: cell-based
[10] = target: T5, Multidrug and toxin extrusion protein 1; assay: Inhibition of human MATE1-mediated [14]-metformin uptake expressed in polarized MDCK2 cells after 5 mins by liquid scintillation counting analysis; type: cell-based, MDCK-II
[11] = target: T6, Multidrug and toxin extrusion protein 2; assay: Inhibition of human MATE2K-mediated ASP+ uptake expressed in HEK293 cells up to 500 uM after 1.5 mins by fluorescence assay; type: cell-based; settings: for INH: human, hek293, […]
[12] = Cmax in iv dosed human; type: ADME, organism-based; set-up: route intravenous; settings: in vivo

Row | Structure (SMILES) | IC50 [2] [µM] | IC50 [3] [µM] | IC50 [4] [µM] | IC50 [6] [µM] | IC50 [7] [µM] | further results
1 | Oc1c(Cl)cc(Cl)cc1Sc1cc(Cl)cc(Cl)c1O [BITHIONOL] | 5.5 | 3.9 | 1.9 | 6.6 |  | INH [5]: 87%
2 | CC(C)(C)NC(=O)[C@@H]1CN(Cc2cccnc2)CCN1C[C@@H](O)C[C@@H](Cc1ccccc1)C(=O)N[C@H]1c2ccccc2C[C@H]1O | > 500 | 208 | 142 |  |  | 
3 | COc1ccccc1OCCNCC(O)COc1cccc2[nH]c3ccccc3c12 (stereo unspecified) [CARVEDILOL] |  |  | 7.5 |  | 92.4 | inhibition at […], 20 µM [1]: 21%; INH [11]: Not Active
4 | O=C1c2c(O)ccc(O)c2C(=O)c2c(NCCNCCO)ccc(NCCNCCO)c21 [MITOXANTRONE] | 60.5 | 43.9 | 73.3 |  |  | 
5 | NC(N)=Nc1nc(CSCCC(N)=NS(N)(=O)=O)cs1 [FAMOTIDINE] | 10.7 | > 300 | 36.1 | 36.2 | 0.76 | 
6 | COc1ccc2c(c1OC)C(=O)O[C@@H]2[C@H]1c2c(cc3c(c2OC)OCO3)CCN1C [NOSCAPINE] |  |  | 2.6 |  |  | inhibition at […], 20 µM [1]: 13.4%; INH [11]: Not Active

Second part, led by results:

Row | IC50 [2] [µM] | IC50 [3] [µM] | IC50 [4] [µM] | Structure (SMILES) | IC50 [6] [µM] | IC50 [7] [µM] | further results
7 | 74.6 | 20.8 | 2.7 | CCc1c2c(nc3ccc(OC(=O)N4CCC(N5CCCCC5)CC4)cc13)-c1cc3c(c(=O)n1C2)COC(=O)[C@]3(O)CC [IRINOTECAN] |  |  | inhibition at […], 20 µM [1]: 49%
8 | 0.41 | 0.21 | 0.4 | [H]/N=C(\N/C(=N/[H])NCCCCCCNC(=N)NC(=N)Nc1ccc(Cl)cc1)Nc1ccc(Cl)cc1 [CHLORHEXIDINE] | 0.5 | 0.7 | INH [5]: 86%
9 | 17.4 | > 300 |  | Cc1nccn1CC1CCc2c(c3ccccc3n2C)C1=O (stereo unspecified) [ONDANSETRON] |  |  | 
10 | 137 | > 500 | 1.5 | COc1ccnc(C[S+]([O-])c2nc3ccc(OC(F)F)cc3[nH]2)c1OC (stereo unspecified) [PANTOPRAZOLE] | > 500 | 43.2 | Cmax [8]: 5.45 µM; IC50 [9]: 2.8 µM; IC50 [10]: 2.8 µM; IC50 [11]: 43.2 µM
11 | 146 | > 300 | 10.3 | Cn1c(NCCN(CCO)CCCc2ccc([N+](=O)[O-])cc2)cc(=O)n(C)c1=O [NIFEKALANT] |  |  | Cmax [12]: 3.43 µM
12 | 9.5 | 22.1 | 1.2 | N=C(N)c1ccc(OCCCCCOc2ccc(C(=N)N)cc2)cc1 [PENTAMIDINE] |  |  | 
